Values quoted from earlier work, collected in article PMC4060611 (Inorganic Chemistry, 2014).
Counter-ions that a name gives are not always drawn. Like-named read-outs stand apart in the source and are kept apart here. Each block holds one compound with its values, some of them ahead of it.

How the values were obtained:
[1] = not given; remark: listed apart in the source
[2] = 0 to 500 μM, 72 h incubation

Compound: NC(=O)CN1CCN(CC(N)=O)CCN(CC(N)=O)CCN(CC(N)=O)CC1.[Eu+3] [[Eu-DOTAm]^3+]
cell association relative to [Eu-DOTA]− [1]: 5 times

Compound: europium compound of 1,4,7,10-tetraazacyclododecane-1,4,7,10-tetraacetic acid [[Eu-DOTA]^−]
effect on cell viability [2]: negligible effect
cellular accumulation [1]: negligible

Compound: C=C[C@H]1C[N@@]2CC[C@H]1C[C@H]2[C@H](O)c1ccnc2ccc(OC)cc12 [quinine sulfate]
quantum yield Φr (in 0.1 M sulfuric acid): 0.577

More lines, now with the values ahead:

quantum yield (in PBS): 4%
Compound: CCN1C(=CC=CC2=[N+](CCCCCC(=O)O)c3ccc(S(=O)(=O)O)cc3C2(C)C)C(C)(C)c2cc(S(=O)(=O)[O-])ccc21 [Cy3]

quantum yield (in water): 30%
Compound: Texas Red

quantum yield (in PBS): 30%
Compound: CCN1C(=CC=CC=CC2=[N+](CCCCCC(=O)O)c3ccc(S(=O)(=O)O)cc3C2(C)C)C(C)(C)c2cc(S(=O)(=O)[O-])ccc21 [Cy5]
